Structures are written as SMILES. A value given as a limit tells only on which side of the number the result lay.

Here are results for 1 compound from patent US20250035641A1, “COMPOSITIONS AND METHODS RELATED TO PROTEIN LABELING” (The Chinese University of Hong Kong, priority 2023, published 2025).

What all share (type): cell-based
In one test the target is HTN-CK2α (Homo sapiens, UniProt P68400). Description: Immunoblot of HTN-CK2α O-GlcNAcylation in HEK293T cells co-expressing fOGT. From the text: Ck2α is a well-studied OGT substrate.^17,25 Its Ser347 is conservatively O-GlcNAcylated and this modification was reported to affect its kinase activity.^16,17 We first co-expressed HTN-Ck2α and fOGT in HEK293T cells at different ratio and found the basal O-GlcNAcylation level of HTN-Ck2α was higher than what we detected in the case of HTN-BRD4. Therefore, a lower ratio of fOGT expression (1:100) was selected for the assessment of OGTAC potency (FIG. 9). […] The induction of specific O-GlcNAcylation on HTN-Ck2α was further confirmed by mass-shift assay. […] To validate the direct binding to both fOGT and HTN-Ck2α is critical, we exploited AP 1867 and rhodamine ligand, which bind to fOGT and HTN-Ck2α respectively, to co-treat with OGTAC-1.
Chain of HTN-CK2α (P68400 with tags, fused parts or gaps): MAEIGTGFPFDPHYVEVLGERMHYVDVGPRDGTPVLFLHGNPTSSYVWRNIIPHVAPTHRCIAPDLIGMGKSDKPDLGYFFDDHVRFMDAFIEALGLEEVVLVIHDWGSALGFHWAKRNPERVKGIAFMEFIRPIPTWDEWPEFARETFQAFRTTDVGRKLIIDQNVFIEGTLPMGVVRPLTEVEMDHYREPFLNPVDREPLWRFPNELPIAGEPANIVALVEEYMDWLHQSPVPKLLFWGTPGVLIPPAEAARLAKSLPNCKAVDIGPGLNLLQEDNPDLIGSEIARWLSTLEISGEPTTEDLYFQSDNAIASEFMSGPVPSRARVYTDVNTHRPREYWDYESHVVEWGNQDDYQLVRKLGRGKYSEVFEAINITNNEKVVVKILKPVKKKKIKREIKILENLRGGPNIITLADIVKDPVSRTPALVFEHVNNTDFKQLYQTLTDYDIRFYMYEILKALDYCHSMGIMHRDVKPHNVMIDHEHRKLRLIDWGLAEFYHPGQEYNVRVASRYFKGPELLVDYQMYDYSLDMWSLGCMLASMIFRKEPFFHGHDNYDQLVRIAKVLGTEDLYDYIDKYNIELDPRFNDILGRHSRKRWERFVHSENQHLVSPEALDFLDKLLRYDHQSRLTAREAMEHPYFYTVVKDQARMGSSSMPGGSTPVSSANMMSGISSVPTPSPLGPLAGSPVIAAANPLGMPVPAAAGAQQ
Chain of HTN-CK2α (P62942+O15294 fused P62942:F37V partner): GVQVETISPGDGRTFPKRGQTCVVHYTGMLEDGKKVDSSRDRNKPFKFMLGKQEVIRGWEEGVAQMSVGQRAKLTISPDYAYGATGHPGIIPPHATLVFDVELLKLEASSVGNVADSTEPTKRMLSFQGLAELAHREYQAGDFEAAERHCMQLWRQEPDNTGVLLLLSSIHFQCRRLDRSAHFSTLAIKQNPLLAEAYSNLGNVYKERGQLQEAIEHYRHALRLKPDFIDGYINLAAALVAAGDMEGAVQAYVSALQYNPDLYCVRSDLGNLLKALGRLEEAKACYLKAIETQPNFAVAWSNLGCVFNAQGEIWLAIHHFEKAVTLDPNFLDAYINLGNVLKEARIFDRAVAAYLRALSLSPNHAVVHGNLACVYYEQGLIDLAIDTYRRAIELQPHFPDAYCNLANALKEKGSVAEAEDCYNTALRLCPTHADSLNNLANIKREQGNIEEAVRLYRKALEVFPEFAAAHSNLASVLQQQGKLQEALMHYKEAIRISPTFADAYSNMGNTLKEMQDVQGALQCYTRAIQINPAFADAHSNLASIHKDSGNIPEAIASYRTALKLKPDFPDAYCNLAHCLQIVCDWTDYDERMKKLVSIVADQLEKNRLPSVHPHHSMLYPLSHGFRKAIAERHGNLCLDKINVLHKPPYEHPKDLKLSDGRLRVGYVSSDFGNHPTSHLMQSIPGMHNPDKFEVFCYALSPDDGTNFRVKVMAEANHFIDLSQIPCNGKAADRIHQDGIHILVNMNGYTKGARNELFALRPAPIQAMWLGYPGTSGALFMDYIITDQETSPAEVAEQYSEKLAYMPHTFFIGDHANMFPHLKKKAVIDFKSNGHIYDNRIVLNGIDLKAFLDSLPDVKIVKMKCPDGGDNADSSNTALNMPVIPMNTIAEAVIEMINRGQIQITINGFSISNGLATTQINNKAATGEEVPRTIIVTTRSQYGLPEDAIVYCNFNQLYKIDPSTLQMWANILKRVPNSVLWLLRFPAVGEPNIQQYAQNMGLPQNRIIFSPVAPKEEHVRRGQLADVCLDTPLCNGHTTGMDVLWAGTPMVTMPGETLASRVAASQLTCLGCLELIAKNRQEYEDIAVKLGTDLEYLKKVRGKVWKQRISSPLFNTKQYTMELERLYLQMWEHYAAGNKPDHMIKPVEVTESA
During immunoblotting study, we noticed that even for whole cell lysate (WCL), RL2 antibody band (green) and HTN-CK2α protein band (red) are perfectly overlapped and clearly distinguishable from other bands on blot (FIG. 6B). We assessed the OGTAC treatment effects by quantifying the RL2 signal that is overlapping with HTN-Ck2α in WCL, and found they are corresponding with the results achieved by IP-WB method (FIG. 6C). Therefore, we quantify the intensity of RL2 band that overlapping with HTN-CK2α level instead of IP CK2α in later study.
For each IP reaction, 2.2×10^6 HEK293T cells were seed in 10 cm dish. After cells attached, transfection reagents and plasmids were prepared and added in DMEM. After 24 h transfection, media were replaced by fresh warm complete media with DMSO or probes. For washout study, after 4 h treatment, media with DMSO or OGTAC-4 (500 nM) were replaced by fresh media with DMSO or AP1867 (50 μM) for further incubation. After certain time of OGTACs treatment, cells were collected by cold PBS and lysed by 200 μL complete IP lysis buffer. The lysate was incubated on ice for 20 min, spun down at 14,000 RPM at 4° C. for 15 mins, and the supernatant were collected for bicinchoninic acid (BCA) assay and normalized to a final 2 mg/mL. For input, 20 μL of diluted sample was reacted with equal volume of 10 μM TMR ligand in IP lysis buffer and rotate gently at RT for 15 mins. The remaining samples were subjected to protein A/G magnetic beads (MedChemExpress, HY-K0202), which pre-binding with protein target protein antibody. For samples for LC-MS/MS or HTN-BRD4 mutant constructs. Halo-Trap Magnetic Agarose (Proteintech, otma) was used to incubate with protein lysates. After gentle rotation at 4° C. for at least 16 h, the beads were washed with IP lysis buffer and boiled in 40 μL 2×SDS-loading buffer (Biorad #1610747) for 5 mins to elute proteins from beads. Eluted samples were directly subjected into WB analysis. To get stronger signal of RL2, we used anti-mouse-HRP (Cell signaling, #7076) as secondary antibody for RL2 and anti-rabbit-DyLight 488 (Invitrogen, #35552) as secondary antibody for total target proteins.
In general, cells (from 12 well plate) were lysed by 80 μl RIPA lysis buffer (Thermo Scientic 89901) supplemented with 20 μM OGA inhibitor (Thaimet G, Bidepharm BD571819) and 100X protease inhibitor (MedChemExpress, HY-K0010), incubated on ice for 20 min, spun down at 14,000 RPM at 4° C. for 15 mins, and the supernatant were collected for bicinchoninic acid (BCA) assay and normalizedeto a final 2 mg/mL concentration. About 30 μg of protein samples were loaded for sodium dodecyl sulfatepolyacrylamide gel electrophoresis (SDS-PADE) and blotted with indicated antibodies.
(In general: In western blotting, separated proteins are transferred to a membrane and probed.)

The next test addresses T1, HTN-BRD4 (Homo sapiens, UniProt O60885).
T1 construct: HaloTag fragment; expressed in transfected cells; host or cells: HEK293T
Kind of test: Pulse-chase assay (HTN-BRD4 engagement in cells). The conditions noted are these: 5 μM, within 15 mins treatment, HEK293T HTN-BRD4:fOGT 20:1. Here is the method:
For HTN-BRD4, as the OGTAC-1 to 3 were designed to be irreversibly linked to it, we developed a pulse-chase assay. […] All of three OGTACs efficiently reached HTN-BRD4, fully occupied the protein within 4 h. OGTAC 1 ranked first among three OGTACs, achieving […] 90% engagement within 15 mins treatment.
1×10^5 HEK293T cells were seeded in each well of 12 well plate. After cells attached, transfection reagents and plasmids were prepared and added in DMEM. After 24 h transfection, media were replaced by fresh warm complete media with DMSO or compounds. After certain time of OGTACs treatment, media in wells were replaced by fresh warm media with 5 μM rhodamine ligand. The cells were incubated in 37° C.′ for 15 mins. Then, media were aspirated and 100 μL IP lysis buffer (Thermo Scientific 87788) supplemented with 20 μM OGA inhibitor (Thiamet G, Bidepharm BD571819) and 100X protease inhibitor (MedChemExpress. HY-K0010) (referred as complete IP lysis buffer in the later paragraph) was added to each well. The lysate was incubated on ice for 20 min, spun down at 14,000 RPM at 4° C. for 15 mins, and the supernatant were collected for bicinchoninic acid (BCA) assay and normalized to a final 2 mg/mL. […] After running, in gel fluorescence at rhodamine channel (545/575 nm) was analysed by Bio-Rad ChemiDoc MP Imaging System. […]

The test system of a further test is HTN-EZH2. Kind of test: O-GlcNAc inducing effects on HTN-EZH2. The conditions noted are these: HTN-EZH2:fOGT=1:0.01. From the text:
FIG. 13: Evaluation of O-GlcNAc inducing effects of OGTAC-1/2/3 on HTN-EZH2 and dose-dependent effect of OGTAC-1 on HTN-EZH2. In the treatment group, transfection ratio is HTN-EZH2:fOGT:=1:0.01.
As there are >20,000 commercially available plasmids for HaloTag-fused human proteins,46 OGTACs can be rapidly tested in a wide range of POIs, enabling time- and dose-dependent manipulation of their specific O-GlcNAcylation level.

Turning to `CC[C@H](C(=O)N1CCCC[C@H]1C(=O)O[C@H](CCc1ccc(OC)c(OC)c1)c1cccc(OCC(=O)NCCOCCOCCCCCCCl)c1)c1cc(OC)c(OC)c(OC)c1` [OGTAC-1, (R)-1-(3-(2-((2-(2-((6-chlorohexyl)oxy)ethoxy)ethyl)amino)-2-oxoethoxy)phenyl)-3-(3,4-dimethoxyphenyl)propyl (S)-1-((S)-2-(3,4,5-trimethoxyphenyl)butanoyl) piperidine-2-carboxylate], at HTN-CK2α (250 nM), the “time at which induction of HTN-CK2α O-GlcNAcylation happened” value is listed as not above 4 h and the “time of peak induction of HTN-CK2α O-GlcNAcylation” value is recorded as 8 h. The “fold increase of O-GlcNAcylation on HTN-CK2α, whole cell lysate WB” value on HTN-CK2α (500 nM and 1 μM) is given as “higher fold increase of O-GlcNAcylation”. Besides, the “concentration of peak induction of HTN-CK2α O-GlcNAcylation” value at HTN-CK2α (24 h treatment) was determined as 1 µM. Also, the “HTN-CK2α O-GlcNAcylation inducing effect among OGTAC-1/2/3” value at HTN-CK2α (IP-WB, fOGT ratio 1:100) was “prevailed among 3 OGTACs”. Also, the “engagement of HTN-BRD4” value at HTN-BRD4 turned out to be 90%. In addition, the “O-GlcNAcylation-inducing effect on HTN-EZH2” value with HTN-EZH2 is listed as “highest O-GlcNAcylation-inducing effects among the three OGTACs”.
